Data reported in patent US10988523B2, “Modified lipidated Relaxin B chain peptides and their therapeutic use” (Sanofi, priority 2018, dated 2021).
*1 amine or outer side, *2 acyl side, *3 side chain or, on linkers, in order; H or OH if unused. Where a SMILES comes first, the peptide text is derived from it. Side-chain parts run from the residue outwards. [ ]: non-standard residue; d: D form. The star is where a group is joined. Lys(Me3) = C[N+](C)(C)CCCC[C@H](N)C(=O)O; γGlu = O=C(O)[C@H](CCC(=O)[*:2])N[*:1]; 1Nal = N[C@@H](Cc1cccc2ccccc12)C(=O)O; Arg(Me) = CNC(=N)NCCC[C@H](N)C(=O)O; Stearoyl = CCCCCCCCCCCCCCCCCC(=O)*; Palmitoyl = CCCCCCCCCCCCCCCC(=O)*; αMeK = C[C@](N)(CCCCN)C(=O)O; Nle = CCCC[C@H](N)C(=O)O; AEEA = NCCOCCOCC(=O)O; Aib = CC(C)(N)C(=O)O

Molecular target: T1, RXFP1 (Homo sapiens, UniProt Q9HBX9)
T1 construct: OVCAR5 cells expressing endogenous RXFP1; endogenous in cells; host or cells: OVCAR5 cells
T1 sequence (Q9HBX9 1-757): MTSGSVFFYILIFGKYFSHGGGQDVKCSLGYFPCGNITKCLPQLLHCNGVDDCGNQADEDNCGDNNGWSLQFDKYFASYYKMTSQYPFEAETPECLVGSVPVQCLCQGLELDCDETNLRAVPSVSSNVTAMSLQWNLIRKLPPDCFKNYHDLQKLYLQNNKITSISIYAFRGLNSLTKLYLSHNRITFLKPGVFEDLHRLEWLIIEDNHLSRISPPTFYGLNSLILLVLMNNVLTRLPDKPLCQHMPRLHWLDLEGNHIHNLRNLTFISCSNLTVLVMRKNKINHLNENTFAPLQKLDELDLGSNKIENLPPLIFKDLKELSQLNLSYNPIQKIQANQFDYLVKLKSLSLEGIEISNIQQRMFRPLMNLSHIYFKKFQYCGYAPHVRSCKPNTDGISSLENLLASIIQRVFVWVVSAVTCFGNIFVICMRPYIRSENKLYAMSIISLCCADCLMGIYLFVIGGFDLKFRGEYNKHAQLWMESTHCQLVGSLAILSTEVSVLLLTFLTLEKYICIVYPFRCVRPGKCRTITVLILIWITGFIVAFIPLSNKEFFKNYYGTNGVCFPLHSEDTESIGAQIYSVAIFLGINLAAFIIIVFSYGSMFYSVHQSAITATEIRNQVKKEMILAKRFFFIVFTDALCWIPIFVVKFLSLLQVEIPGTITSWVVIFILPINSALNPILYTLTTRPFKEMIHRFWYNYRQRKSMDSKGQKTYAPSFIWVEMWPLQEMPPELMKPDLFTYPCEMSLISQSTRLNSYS
Assay: OVCAR5 cAMP assay (HTRF), RXFP1 agonist activity
Assay type: cell-based
Details: for EC50: OVCAR5 cells, cAMP HTRF, read-out: EC50 (nM), OVCAR 5 cells (cAMP); for Emax: OVCAR-5, maximal cAMP relative to H2-relaxin maximum (100%), read-out: EMax, OVCAR 5 cells (cAMP)
Outline: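 cAMP accumulation readout: after 1 mM IBMX for 40 min, endogenous-RXFP1 OVCAR5 cells got rising peptide concentrations without FCS, 30 min, 37° C, then lysis with HTRF cAMP reagents. Nonlinear regression gave EC50; Emax expressed relative to H2-relaxin maximum, same occasion.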

Row | SMILES | EC50 [nM] | Emax [%]
1 | CCCCCCCCCCCCCCCC(=O)N[C@@H](CCC(=O)N[C@@H](CCC(=O)NCCCC[C@H](NC(=O)CC[C@H](NC(=O)CC[C@H](NC(=O)COCCOCCNC(=O)COCCOCCNC(=O)COCCOCCNC(=O)COCCOCCNC(=O)[C@H](CCCCNC(C)=O)NC(=O)[C@H](CCCCN)NC(=O)[C@H](CCCNC(=N)N)NC(=O)[C@](C)(CCCCN)NC(=O)[C@H](CO)NC(=O)[C@H](Cc1ccccc1)NC(=O)[C@@H](NC(=O)[C@H](CO)NC(=O)[C@H](CCCC)NC(=O)CNC(=O)[C@H](CCC(=O)O)NC(=O)C(C)(C)NC(=O)C(C)(C)NC(=O)[C@@H](NC(=O)[C@H](CCCCNC(C)=O)NC(=O)[C@H](C)NC(=O)[C@H](CCCNC(=N)N)NC(=O)[C@@H](NC(=O)[C@H](CCCCN)NC(=O)[C@H](CCC(=O)O)NC(=O)[C@H](CCCNC(=N)N)NC(=O)CNC(=O)[C@H](CCC(=O)O)NC(=O)[C@H](CC(C)C)NC(C)=O)C(C)C)[C@@H](C)CC)[C@@H](C)O)C(=O)O)C(=O)O)C(N)=O)C(=O)O)C(=O)O [compound 159] (Ac-LEGREKVRAK(Ac)I[Aib][Aib]EG[Nle]STFS[αMeK]RKK(Ac)[AEEA][AEEA][AEEA][AEEA][γGlu][γGlu]K([γGlu-γGlu-Palmitoyl])-NH2) | 0.02 | 88
2 | CCCCCCCCCCCCCCCC(=O)N[C@@H](CCC(=O)NCCCC[C@H](NC(=O)CC[C@H](NC(=O)CC[C@H](NC(=O)COCCOCCNC(=O)COCCOCCNC(=O)COCCOCCNC(=O)COCCOCCNC(=O)[C@H](CCCCNC(C)=O)NC(=O)[C@H](CCCCN)NC(=O)[C@H](CCCNC(=N)N)NC(=O)C(C)(C)NC(=O)[C@H](CO)NC(=O)[C@H](Cc1c[nH]c2ccccc12)NC(=O)[C@@H](NC(=O)[C@H](CO)NC(=O)[C@H](CCCC)NC(=O)CNC(=O)[C@H](CCC(=O)O)NC(=O)C(C)(C)NC(=O)C(C)(C)NC(=O)[C@@H](NC(=O)[C@H](CCCCNC(C)=O)NC(=O)[C@H](C)NC(=O)[C@H](CCCNC(=N)N)NC(=O)[C@@H](NC(=O)[C@H](CCCCN)NC(=O)[C@H](CCC(=O)O)NC(=O)[C@H](CCCNC(=N)N)NC(=O)CNC(=O)[C@H](CCC(=O)O)NC(=O)[C@H](CC(C)C)NC(C)=O)C(C)C)[C@@H](C)CC)[C@@H](C)O)C(=O)O)C(=O)O)C(N)=O)C(=O)O [compound 116] (Ac-LEGREKVRAK(Ac)I[Aib][Aib]EG[Nle]STWS[Aib]RKK(Ac)[AEEA][AEEA][AEEA][AEEA][γGlu][γGlu]K([γGlu-Palmitoyl])-NH2) | 1 | 89
3 | CCCCCCCCCCCCCCCCCC(=O)N[C@@H](CCC(=O)N[C@@H](CCC(=O)N[C@@H](CCC(=O)NCCOCCOCC(=O)NCCOCCOCC(=O)NCCOCCOCC(=O)NCCCC[C@H](NC(=O)[C@H](CCCCNC(C)=O)NC(=O)[C@H](CCCC[N+](C)(C)C)NC(=O)[C@H](CCCNC(=N)NC)NC(=O)C(C)(C)NC(=O)[C@H](CO)NC(=O)[C@H](Cc1c[nH]c2ccccc12)NC(=O)[C@@H](NC(=O)[C@H](CO)NC(=O)[C@H](CCCC)NC(=O)CNC(=O)[C@H](CCC(=O)O)NC(=O)C(C)(C)NC(=O)C(C)(C)NC(=O)[C@@H](NC(=O)[C@H](CCCCNC(C)=O)NC(=O)[C@H](C)NC(=O)[C@H](CCCNC(=N)N)NC(=O)[C@@H](NC(=O)[C@H](CCCCN)NC(=O)[C@H](CCC(=O)O)NC(=O)[C@H](CCCNC(=N)N)NC(=O)CNC(=O)[C@H](CCC(=O)O)NC(=O)[C@H](CC(C)C)NC(C)=O)C(C)C)[C@@H](C)CC)[C@@H](C)O)C(N)=O)C(=O)O)C(=O)O)C(=O)O [compound 137] (Ac-LEGREKVRAK(Ac)I[Aib][Aib]EG[Nle]STWS[Aib][Arg(Me)][Lys(Me3)]K(Ac)K([AEEA-AEEA-AEEA-γGlu-γGlu-γGlu-Stearoyl])-NH2) | 0.21 | 92
4 | CCCCCCCCCCCCCCCCCC(=O)N[C@@H](CCC(=O)N[C@@H](CCC(=O)N[C@@H](CCC(=O)NCCOCCOCC(=O)NCCOCCOCC(=O)NCCOCCOCC(=O)NCCOCCOCC(=O)NCCCC[C@H](NC(=O)[C@H](CCCCNC(C)=O)NC(=O)[C@H](C)NC(=O)[C@H](CCCNC(=N)N)NC(=O)[C@](C)(CCCCN)NC(=O)[C@H](CO)NC(=O)[C@H](Cc1c[nH]c2ccccc12)NC(=O)[C@@H](NC(=O)[C@H](CO)NC(=O)[C@H](CCCC)NC(=O)CNC(=O)[C@H](CCC(=O)O)NC(=O)C(C)(C)NC(=O)C(C)(C)NC(=O)[C@@H](NC(=O)[C@H](CCCCNC(C)=O)NC(=O)[C@H](C)NC(=O)[C@H](CCCNC(=N)N)NC(=O)[C@@H](NC(=O)[C@H](CCCCN)NC(=O)[C@H](CCC(=O)O)NC(=O)[C@H](CCCNC(=N)N)NC(=O)CNC(=O)[C@H](CCC(=O)O)NC(=O)[C@H](CC(C)C)NC(C)=O)C(C)C)[C@@H](C)CC)[C@@H](C)O)C(N)=O)C(=O)O)C(=O)O)C(=O)O [compound 135] (Ac-LEGREKVRAK(Ac)I[Aib][Aib]EG[Nle]STWS[αMeK]RAK(Ac)K([AEEA-AEEA-AEEA-AEEA-γGlu-γGlu-γGlu-Stearoyl])-NH2) | – | 97
5 | CCCCCCCCCCCCCCCCCC(=O)N[C@@H](CCC(=O)N[C@@H](CCC(=O)N[C@@H](CCC(=O)NCCOCCOCC(=O)NCCOCCOCC(=O)NCCCC[C@H](NC(=O)[C@H](CCCCN)NC(=O)[C@H](CCCCNC(C)=O)NC(=O)[C@H](CCCNC(=N)N)NC(=O)C(C)(C)NC(=O)[C@H](CO)NC(=O)[C@H](Cc1c[nH]c2ccccc12)NC(=O)[C@@H](NC(=O)[C@H](CO)NC(=O)[C@H](CCCC)NC(=O)CNC(=O)[C@H](CCC(=O)O)NC(=O)C(C)(C)NC(=O)C(C)(C)NC(=O)[C@@H](NC(=O)[C@H](CCCCNC(C)=O)NC(=O)[C@H](C)NC(=O)[C@H](CCCNC(=N)N)NC(=O)[C@@H](NC(=O)[C@H](CCCCN)NC(=O)[C@H](CCC(=O)O)NC(=O)[C@H](CCCNC(=N)N)NC(=O)CNC(=O)[C@H](CCC(=O)O)NC(=O)[C@H](CC(C)C)NC(C)=O)C(C)C)[C@@H](C)CC)[C@@H](C)O)C(N)=O)C(=O)O)C(=O)O)C(=O)O [compound 72] (Ac-LEGREKVRAK(Ac)I[Aib][Aib]EG[Nle]STWS[Aib]RK(Ac)KK([AEEA-AEEA-γGlu-γGlu-γGlu-Stearoyl])-NH2) | 0.17 | 93
6 | CCCCCCCCCCCCCCCCCC(=O)N[C@@H](CCC(=O)NCCOCCOCC(=O)N[C@@H](CCC(=O)N[C@@H](CCC(=O)N[C@@H](CCC(=O)NCCOCCOCC(=O)NCCOCCOCC(=O)NCCCC[C@H](NC(=O)[C@H](CCCCN)NC(=O)[C@H](CCCCN)NC(=O)[C@H](CCCNC(=N)N)NC(=O)C(C)(C)NC(=O)[C@H](CO)NC(=O)[C@H](Cc1cccc2ccccc12)NC(=O)[C@@H](NC(=O)[C@H](CO)NC(=O)[C@H](CCCC)NC(=O)CNC(=O)[C@H](CCC(=O)O)NC(=O)C(C)(C)NC(=O)C(C)(C)NC(=O)[C@@H](NC(=O)[C@H](CCCCNC(C)=O)NC(=O)[C@H](C)NC(=O)[C@H](CCCNC(=N)N)NC(=O)[C@@H](NC(=O)[C@H](CCCCN)NC(=O)[C@H](CCC(=O)O)NC(=O)[C@H](CCCNC(=N)N)NC(=O)CNC(=O)[C@H](CCC(=O)O)NC(=O)[C@H](CC(C)C)NC(C)=O)C(C)C)[C@@H](C)CC)[C@@H](C)O)C(N)=O)C(=O)O)C(=O)O)C(=O)O)C(=O)O [compound 103] (Ac-LEGREKVRAK(Ac)I[Aib][Aib]EG[Nle]ST[1Nal]S[Aib]RKKK([AEEA-AEEA-γGlu-γGlu-γGlu-AEEA-γGlu-Stearoyl])-NH2) | 0.09 | 79
